Assays:
Type in all cases: biochemical
Conditions in all cases: result in words
[1] = target: T1, NKTR (Homo sapiens, UniProt P30414); assay: chymotrypsin coupled PPIase assay, NKTR inhibition
T1 sequence (P30414 1-1462): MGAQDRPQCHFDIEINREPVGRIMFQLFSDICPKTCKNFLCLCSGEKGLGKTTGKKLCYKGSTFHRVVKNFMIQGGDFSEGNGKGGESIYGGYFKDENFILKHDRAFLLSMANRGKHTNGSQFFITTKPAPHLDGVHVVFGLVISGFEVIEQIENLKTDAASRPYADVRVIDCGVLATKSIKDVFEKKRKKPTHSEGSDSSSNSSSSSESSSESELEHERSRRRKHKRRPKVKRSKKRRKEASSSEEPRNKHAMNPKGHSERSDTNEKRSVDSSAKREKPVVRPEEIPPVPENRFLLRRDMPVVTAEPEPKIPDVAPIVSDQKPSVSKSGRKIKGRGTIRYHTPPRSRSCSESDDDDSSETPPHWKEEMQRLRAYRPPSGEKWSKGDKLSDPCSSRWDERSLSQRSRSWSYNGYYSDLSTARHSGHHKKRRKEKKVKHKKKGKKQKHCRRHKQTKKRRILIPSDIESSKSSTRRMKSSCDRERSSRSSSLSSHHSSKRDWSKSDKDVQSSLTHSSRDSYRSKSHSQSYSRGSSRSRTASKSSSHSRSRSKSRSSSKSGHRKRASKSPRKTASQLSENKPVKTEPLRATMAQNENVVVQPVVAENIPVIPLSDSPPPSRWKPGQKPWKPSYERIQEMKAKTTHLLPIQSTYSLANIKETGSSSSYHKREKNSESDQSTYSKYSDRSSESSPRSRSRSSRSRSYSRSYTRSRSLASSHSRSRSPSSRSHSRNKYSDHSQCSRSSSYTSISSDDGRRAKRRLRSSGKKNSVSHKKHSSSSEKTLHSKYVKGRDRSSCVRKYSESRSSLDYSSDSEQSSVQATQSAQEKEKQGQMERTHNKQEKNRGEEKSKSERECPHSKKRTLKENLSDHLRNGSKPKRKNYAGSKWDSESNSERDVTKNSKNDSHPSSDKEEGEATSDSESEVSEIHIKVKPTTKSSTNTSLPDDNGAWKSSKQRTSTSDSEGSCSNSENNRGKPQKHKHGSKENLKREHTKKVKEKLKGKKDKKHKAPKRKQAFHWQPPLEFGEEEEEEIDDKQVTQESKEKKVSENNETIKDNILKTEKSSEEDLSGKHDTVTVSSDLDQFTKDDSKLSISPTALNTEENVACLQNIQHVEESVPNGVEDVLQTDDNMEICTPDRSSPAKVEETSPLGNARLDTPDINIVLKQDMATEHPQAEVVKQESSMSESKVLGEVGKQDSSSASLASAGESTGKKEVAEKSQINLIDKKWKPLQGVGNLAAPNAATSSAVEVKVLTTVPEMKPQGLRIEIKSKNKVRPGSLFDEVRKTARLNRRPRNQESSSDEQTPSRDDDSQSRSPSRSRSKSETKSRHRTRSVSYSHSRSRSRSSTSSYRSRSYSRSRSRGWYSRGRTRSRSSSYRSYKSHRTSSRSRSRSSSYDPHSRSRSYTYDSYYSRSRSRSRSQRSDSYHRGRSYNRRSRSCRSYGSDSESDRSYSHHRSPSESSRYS
Procedure: (§1) Following the synthesis of the indicated library members, in vitro inhibition (IC50) assays of these hits were conducted to obtain IC50 inhibitory data. For the IC50 assays, a chymotrypsin coupled PPIase assay using Suc-AAPF-AMC as the peptide substrate was used, whereby isomerization of a peptide substrate Suc-AAPF-AMC from the cis to trans conformation allowed for proteolysis via excess a-chymotrypsin, releasing the C-terminal coumarin fluorophore. […] Other non-inhibitor library members were also checked for binding via SPR, but produced the same profile as the prolyl isomerase assay.
(§2) Subsequently, to determine if the compounds could both access the S2 pocket and display CypD specificity, JOMBtrans and compound 49 were screened against the 10 other cyclophilins with reported prolyl isomerase activity. […] Co-crystal structures of JOMBtrans and 49 were solved with CypD. […] Three further H-bonds with the macrocycle's backbone and CypD were observed along with a cation-n interaction. […] The benzyl group on the piperidine ring altered the conformation of the macrocycle to open up two new hydrogen bonding interactions with CypD. […] This improvement in specificity compared to JOMBtrans signified that more CypD specific compounds can be garnered by derivatization into the S2 pocket.

[2] = target: T2, CypG (Homo sapiens, UniProt Q13427); assay: chymotrypsin coupled PPIase assay, CypG inhibition
T2 sequence (Q13427 1-754): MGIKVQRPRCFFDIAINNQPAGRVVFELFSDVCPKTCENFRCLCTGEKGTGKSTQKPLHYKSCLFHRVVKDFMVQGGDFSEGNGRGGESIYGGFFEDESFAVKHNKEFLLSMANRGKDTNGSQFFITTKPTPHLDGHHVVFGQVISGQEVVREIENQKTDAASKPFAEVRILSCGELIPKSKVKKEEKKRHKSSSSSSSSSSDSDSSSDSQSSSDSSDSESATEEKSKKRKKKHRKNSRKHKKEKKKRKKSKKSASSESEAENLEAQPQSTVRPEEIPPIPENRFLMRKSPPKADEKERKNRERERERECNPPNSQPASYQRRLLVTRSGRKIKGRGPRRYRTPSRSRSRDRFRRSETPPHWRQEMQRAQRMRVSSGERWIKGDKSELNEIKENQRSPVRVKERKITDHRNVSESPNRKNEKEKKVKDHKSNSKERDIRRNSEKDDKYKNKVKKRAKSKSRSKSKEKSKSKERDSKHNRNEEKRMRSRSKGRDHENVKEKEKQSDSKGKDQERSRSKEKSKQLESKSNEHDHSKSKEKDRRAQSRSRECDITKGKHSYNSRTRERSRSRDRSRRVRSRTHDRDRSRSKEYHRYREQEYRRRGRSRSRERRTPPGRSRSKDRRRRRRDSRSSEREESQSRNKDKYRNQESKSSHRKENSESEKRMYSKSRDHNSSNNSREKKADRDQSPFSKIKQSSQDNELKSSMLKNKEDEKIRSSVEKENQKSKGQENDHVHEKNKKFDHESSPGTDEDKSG
Procedure: as §1, §2

[3] = target: CypH (Homo sapiens, UniProt O43447); assay: chymotrypsin coupled PPIase assay, CypH inhibition
Procedure: as §1, §2

CypH, sequence (O43447 whole entry): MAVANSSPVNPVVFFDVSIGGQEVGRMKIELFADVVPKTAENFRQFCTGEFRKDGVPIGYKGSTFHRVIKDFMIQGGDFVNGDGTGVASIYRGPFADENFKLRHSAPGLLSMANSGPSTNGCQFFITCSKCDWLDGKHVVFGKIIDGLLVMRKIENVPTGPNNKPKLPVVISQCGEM

SMILES: NCCOCCNC(=O)[C@@H]1CCNC(=O)/C=C/C(=O)N2CCC[C@H](C2)C(=O)N[C@@H](Cc2ccc(C(=O)c3ccccc3)cc2)C(=O)NCc2ccccc2CC(=O)N1 [compound 27]
- inhibition of NKTR [1]: Almost complete ablation of inhibition profiles
- inhibition of CypG [2]: Almost complete ablation of inhibition profiles
- inhibition of CypH [3]: Almost complete ablation of inhibition profiles

From patent US20230117680A1, “CYCLOPHILIN D INHIBITORS AND USES THEREOF” (The Broad Institute, Inc., priority 2019, published 2023)
